Measurements as given in PubChem BioAssay (NCI).
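All cell lines were grown in 96-well plates and treated with compound for 48 hours. TGI is the concentration that stops growth completely.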

Tests used:
Experiment in all cases: NCI anticancer screen, dose series, 48 h
UO-31 renal = tested on: UO-31 renal
MALME-3M melanoma = tested on: MALME-3M melanoma
CCRF-CEM leukemia = tested on: CCRF-CEM leukemia
UACC-62 melanoma = tested on: UACC-62 melanoma
SNB-75 CNS = tested on: SNB-75 CNS
OVCAR-3 ovarian = tested on: OVCAR-3 ovarian
CAKI-1 renal = tested on: CAKI-1 renal
KM20L2 colon = tested on: KM20L2 colon
HOP-62 NSCLC = tested on: HOP-62 NSCLC
LOX IMVI melanoma = tested on: LOX IMVI melanoma
COLO 205 colon = tested on: COLO 205 colon
DLD-1 colon = tested on: DLD-1 colon
SK-MEL-28 melanoma = tested on: SK-MEL-28 melanoma
SNB-19 CNS = tested on: SNB-19 CNS
OVCAR-4 ovarian = tested on: OVCAR-4 ovarian
M19-MEL melanoma = tested on: M19-MEL melanoma
IGROV1 ovarian = tested on: IGROV1 ovarian
SK-MEL-2 melanoma = tested on: SK-MEL-2 melanoma
OVCAR-5 ovarian = tested on: OVCAR-5 ovarian
XF 498 CNS = tested on: XF 498 CNS

Measured: TGI

CNC(=O)CN1CC(=O)N(C)C(=O)C1
> 100 µM: UO-31 renal | MALME-3M melanoma | CCRF-CEM leukemia | UACC-62 melanoma | SNB-75 CNS | OVCAR-3 ovarian | CAKI-1 renal | KM20L2 colon | HOP-62 NSCLC | LOX IMVI melanoma | COLO 205 colon | DLD-1 colon | SK-MEL-28 melanoma | SNB-19 CNS | OVCAR-4 ovarian | M19-MEL melanoma | IGROV1 ovarian | SK-MEL-2 melanoma | OVCAR-5 ovarian | XF 498 CNS

COc1ccc2c(c1)c1cc(OC)ccc1n2CCCCOc1ccc(-c2c3ccccc3c(-c3ccc(OCCCCn4c5ccc(OC)cc5c5cc(OC)ccc54)cc3)c3ccccc23)cc1
> 100 µM: UO-31 renal | MALME-3M melanoma | CCRF-CEM leukemia | UACC-62 melanoma | SNB-75 CNS | OVCAR-3 ovarian | CAKI-1 renal | KM20L2 colon | HOP-62 NSCLC | LOX IMVI melanoma | COLO 205 colon | DLD-1 colon | SK-MEL-28 melanoma | SNB-19 CNS | OVCAR-4 ovarian | M19-MEL melanoma | IGROV1 ovarian | SK-MEL-2 melanoma | OVCAR-5 ovarian | XF 498 CNS
